The record followed here is patent US8242274B2, “Triazolopyridine kinase inhibitors useful for the treatment of degenerative and inflammatory diseases” (Galapagos NV, priority 2008, dated 2012).

The target in data set [1] is T1, Recombinant human JAK1 catalytic domain (Homo sapiens, UniProt P23458).
T1 construct: Recombinant human JAK1 catalytic domain (amino acids 850-1154; catalog number 08-144); purchased Carna Biosciences 08-144
Kind of data set: JAK1 inhibition assay. The format is biochemical. The note with it: semi-quantitative score. As to the method:
Recombinant human JAK1 catalytic domain (amino acids 850-1154; catalog number 08-144) was purchased from Carna Biosciences. 10 ng of JAK1 was incubated with 12.5 μg polyGT substrate (Sigma catalog number P0275) in kinase reaction buffer (15 mM Tris-HCl pH 7.5, 1 mM DTT, 0.01% Tween-20, 10 mM MgCl2, 2 μM non-radioactive ATP, 0.25 μCi 33P-gamma-ATP (GE Healthcare, catalog number AH9968) final concentrations) with or without 5 μL containing test compound or vehicle (DMSO, 1% final concentration), in a total volume of 25 μL, in a polypropylene 96-well plate (Greiner, V-bottom). After 45 min at 30° C., reactions were stopped by adding of 25 μL/well of 150 mM phosphoric acid. All of the terminated kinase reaction was transferred to prewashed (75 mM phosphoric acid) 96 well filter plates (Perkin Elmer catalog number 6005177) using a cell harvester (Perkin Elmer). Plates were washed 6 times with 300 μL per well of a 75 mM phosphoric acid solution and the bottom of the plates was sealed. 40 μL/well of Microscint-20 was added, the top of the plates was sealed and readout was performed using the Topcount (Perkin Elmer). Kinase activity was calculated by subtracting counts per minute (cpm) obtained in the presence of a positive control inhibitor (10 μM staurosporine) from cpm obtained in the presence of vehicle. The ability of a test compound to inhibit this activity was determined as: Percentage inhibition=((cpm determined for sample with test compound present−cpm determined for sample with positive control inhibitor)divided by(cpm determined in the presence of vehicle−cpm determined for sample with positive control inhibitor))*100%.
Dose dilution series were prepared for the compounds enabling the testing of dose-response effects in the JAK1 assay and the calculation of the IC50 for each compound. Each compound was routinely tested at concentration of 20 μM followed by a 1/3 serial dilution, 8 points (20 μM-6.67 μM-2.22 μM-740 nM-247 nM-82 nM-27 nM-9 nM) in a final concentration of 1% DMSO.

Data set [2] can be described thus: Microsomal stability, human. The data set is classed as in vitro ADME. To be noted: human liver microsomes, 3 μM compound, 37° C. Here is the method:
(§1) A 10 mM stock solution of compound in DMSO was diluted 1000 fold in a 182 mM phosphate buffer pH 7.4 in a 96 deep well plate (Greiner, Cat no. 780285) and pre-incubated at 37° C.
(§2) 40 μL of deionised water was added to a well of a polypropylene Matrix 2D barcode labelled storage tube (Thermo Scientific) and pre-incubated at 37° C.
(§3) A Glucose-6-phosphate-dehydrogenase (G6PDH) working stock solution was prepared in 182 mM phosphate buffer pH7.4 and placed on ice before use. A co-factor containing MgCl2, glucose-6-phosphate and NADP+ was prepared in deionised water and placed on ice before use.
(§4) A final working solution containing liver microsomes (Xenotech) of a species of interest (human, mouse, rat, dog), previously described G6PDH and co-factors was prepared and this mix was incubated for no longer than 20 minutes at room temperature.
(§5) 30 μL of the pre-heated compound dilution was added to 40 μL of pre-heated water in the Matrix tubes and 30 μL of the microsomal mix was added. Final reaction concentrations were 3 μM compound, 1 mg microsomes, 0.4 U/mL GDPDH, 3.3 mM MgCl2, 3.3 mM glucose-6-phosphate and 1.3 mM NADP+.
(§6) To measure percentage remaining of compound at time zero MeOH or ACN was added (1:1) to the well before adding the microsomal mix. The plates were sealed with Matrix Sepra Seals™ (Matrix, Cat. No. 4464) and shaken for a few seconds ensure complete mixing of all components.
(§7) The samples which were not stopped are incubated at 37° C., 300 rpm and after 1 hour of incubation the reaction was stopped with MeOH or ACN (1:1).
(§8) After stopping the reaction the samples were mixed and placed on ice for 30 min to precipitate the proteins. The plates were then centrifuged 30 min at 1200 rcf at 4° C. and the supernatant was transferred to a 96 v-bottom PP plate (Greiner, 651201) for analysis on LCMS.
(§9) These plates were sealed with sealing mats (MA96RD-04S) of www.kinesis.co.uk and samples were measured at room temperature on LCMS (ZQ 1525 from Waters) under optimized conditions using Quanoptimize to determine the appropriate mass of the parent molecule.
(§10) The samples were analyzed on LCMS with a flow rate of 1 mL/min. Solvent A was 15 mM ammonia and solvent B was methanol or acetonitrile, depending on the stop solution used. The samples were run under positive ion spray on an XBridge C18 […] (2.1×30 mm) column, from Waters.
(§11) Peak area from the parent compound at time 0 was considered to be 100% remaining. The percentage remaining after 1 hour incubation was calculated from time 0 and was calculated as the percentage remaining. The solubility of the compound in the final test concentration in buffer is inspected by microscope and results are reported.
(§12) The data on microsomal stability are expressed as a percentage of the total amount of compound remaining after 60 minutes.

Data set [3] can be described thus: Microsomal stability, rat. The format is in vitro ADME. The note with it: rat liver microsomes, 3 μM compound, 37° C. Here is the method: as §1, §2, §3, §4, §5, §6, §7, §8, §9, §10, §11, §12
The nature of data set [4]: Caco2 permeability, bi-directional. The format is in vitro ADME. To be noted: human, Caco-2; 10 μM, 1 hour, pH 7.4. Here is the method: Bi-directional Caco-2 assays were performed as described below. Caco-2 cells were obtained from European Collection of Cell Cultures (ECACC, cat 86010202) and used after a 21 day cell culture in 24-well Transwell plates (Fisher TKT-545-020B).
2×10^5 cells/well were seeded in plating medium consisting of DMEM+GlutaMAXI+1% NEAA+10% FBS (FetalClone II)+1% Pen/Strep. The medium was changed every 2-3 days.
Test and reference compounds (propranolol and rhodamine 123 or vinblastine, all purchased from Sigma) were prepared in Hanks' Balanced Salt Solution containing 25 mM HEPES (pH 7.4) and added to either the apical (125 μL) or basolateral (600 μL) chambers of the Transwell plate assembly at a concentration of 10 μM with a final DMSO concentration of 0.25%.
50 μM Lucifer Yellow (Sigma) was added to the donor buffer in all wells to assess integrity of the cell layers by monitoring Lucifer Yellow permeation. As Lucifer Yellow (LY) cannot freely permeate lipophilic barriers, a high degree of LY transport indicates poor integrity of the cell layer.
After a 1 hour incubation at 37° C. while shaking at an orbital shaker at 150 rpm, 70 μL aliquots were taken from both apical (A) and basal (B) chambers and added to 100 μLl 50:50 acetonitrile:water solution containing analytical internal standard (0.5 μM carbamazepine) in a 96 well plate.
Lucifer yellow was measured with a Spectramax Gemini XS (Ex 426 nm and Em 538 nm) in a clean 96 well plate containing 150 μL of liquid from basolateral and apical side.
Concentrations of compound in the samples were measured by high performance liquid-chromatography/mass spectroscopy (LC-MS/MS).
The Efflux ratios, as an indication of active efflux from the apical cell surface, were calculated using the ratio of PappB>A/PappA>B.

A further data set has as its system MMP13. The data set can be described thus: OSM/IL-1β signaling assay (SW1353 cells). The format is cell-based. The note with it: Homo sapiens, 25 ng/mL OSM and 1 ng/mL IL-1β, 48 hours.

T1 sequence (P23458 850-1154): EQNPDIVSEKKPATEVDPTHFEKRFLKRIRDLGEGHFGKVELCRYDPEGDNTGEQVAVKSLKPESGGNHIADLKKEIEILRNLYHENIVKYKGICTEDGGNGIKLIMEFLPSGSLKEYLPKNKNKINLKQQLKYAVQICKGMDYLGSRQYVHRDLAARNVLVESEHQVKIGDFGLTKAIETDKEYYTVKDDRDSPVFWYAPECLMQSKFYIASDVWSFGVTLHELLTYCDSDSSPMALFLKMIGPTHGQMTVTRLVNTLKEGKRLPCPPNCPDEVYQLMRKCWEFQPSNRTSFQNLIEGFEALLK
Procedure for MMP13: The cells were seeded in 96 well plates at 15,000 cells/well in a volume of 120 μL DMEM (Invitrogen) containing 10% (v/v) FBS and 1% penicillin/streptomycin (InVitrogen) incubated at 37° C. 5% CO2. Cells were preincubated with 15 μL compound in M199 medium with 2% DMSO 1 hr before triggering with 15 μL OSM and IL-1β to reach 25 ng/mL OSM and 1 ng/mL IL-1β, and MMP13 levels were measured in conditioned medium 48 hours after triggering. MMP13 activity was measured using an antibody capture activity assay. For this purpose, 384 well plates (NUNC, 460518, MaxiSorb black) were coated with 35 μL of a 1.5 μg/mL anti-human MMP13 antibody (R&D Systems, MAB511) solution for 24 hours at 4° C. After washing the wells 2 times with PBS+0.05% Tween, the remaining binding sites were blocked with 100 μL 5% non-fat dry milk (Santa Cruz, sc-2325, Blotto) in PBS for 24 hours at 4° C. […] Next the wells were washed twice with PBS+0.05% Tween followed by MMP13 activation by addition of 35 μL of a 1.5 mM 4-Aminophenylmercuric acetate (APMA) (Sigma, A9563) solution and incubation at 37° C. for 1 hour. […] After incubation for 24 hours at 37° C. fluorescence of the converted substrate was measured in a Perkin Elmer Wallac EnVision 2102 Multilabel Reader (wavelength excitation: 320 nm, wavelength emission: 405 nm).

With `NC(=O)c1ccc(COc2ccc(-c3cccc4nc(NC(=O)C5CC5)nn34)cc2)cn1` [Compound 192, 5-{4-[2-(Cyclopropanecarbonyl-amino)-[1,2,4]triazolo[1,5-a]pyridin-5-yl]-phenoxymethyl}-pyridine-2-carboxylic acid amide], in data set [1], the concentration for half-maximal inhibition (IC50) lay within 0.1 to 100 nM. Also, the “Microsomal stability Human (%), compound remaining after 60 minutes” value in data set [2] is listed as 127.2%. The “Microsomal stability Rat (%), compound remaining after 60 minutes” value in data set [3] was found to be 77.62%. For the same compound, the Papp A→B at 1 h, 10 μM in data set [4] turned out to be 12.5 ×10⁻⁶ cm/s. In the data set on MMP13, this compound yielded an EC50 above 1000 nM.
